From patent US20230295109A1, “PYRIDINONE COMPOUNDS FOR THE TREATMENT OF AUTOIMMUNE DISEASE” (F. Hoffmann-La Roche AG, priority 2020, published 2023)

Legend:
human TLR8 = biological target: T1, human TLR8 (Homo sapiens, UniProt Q9NR97); assay: HEK293-Blue-hTLR-8 cells assay; type: cell-based; details: HEK293-Blue-hTLR8 cells, R848 stimulation, 20 hrs, SEAP reporter; read-out: HEK/hTLR8 IC50
T1 construct: host or cells: HEK293 (HEK-Blue hTLR8)
T1 sequence (Q9NR97 27-1041): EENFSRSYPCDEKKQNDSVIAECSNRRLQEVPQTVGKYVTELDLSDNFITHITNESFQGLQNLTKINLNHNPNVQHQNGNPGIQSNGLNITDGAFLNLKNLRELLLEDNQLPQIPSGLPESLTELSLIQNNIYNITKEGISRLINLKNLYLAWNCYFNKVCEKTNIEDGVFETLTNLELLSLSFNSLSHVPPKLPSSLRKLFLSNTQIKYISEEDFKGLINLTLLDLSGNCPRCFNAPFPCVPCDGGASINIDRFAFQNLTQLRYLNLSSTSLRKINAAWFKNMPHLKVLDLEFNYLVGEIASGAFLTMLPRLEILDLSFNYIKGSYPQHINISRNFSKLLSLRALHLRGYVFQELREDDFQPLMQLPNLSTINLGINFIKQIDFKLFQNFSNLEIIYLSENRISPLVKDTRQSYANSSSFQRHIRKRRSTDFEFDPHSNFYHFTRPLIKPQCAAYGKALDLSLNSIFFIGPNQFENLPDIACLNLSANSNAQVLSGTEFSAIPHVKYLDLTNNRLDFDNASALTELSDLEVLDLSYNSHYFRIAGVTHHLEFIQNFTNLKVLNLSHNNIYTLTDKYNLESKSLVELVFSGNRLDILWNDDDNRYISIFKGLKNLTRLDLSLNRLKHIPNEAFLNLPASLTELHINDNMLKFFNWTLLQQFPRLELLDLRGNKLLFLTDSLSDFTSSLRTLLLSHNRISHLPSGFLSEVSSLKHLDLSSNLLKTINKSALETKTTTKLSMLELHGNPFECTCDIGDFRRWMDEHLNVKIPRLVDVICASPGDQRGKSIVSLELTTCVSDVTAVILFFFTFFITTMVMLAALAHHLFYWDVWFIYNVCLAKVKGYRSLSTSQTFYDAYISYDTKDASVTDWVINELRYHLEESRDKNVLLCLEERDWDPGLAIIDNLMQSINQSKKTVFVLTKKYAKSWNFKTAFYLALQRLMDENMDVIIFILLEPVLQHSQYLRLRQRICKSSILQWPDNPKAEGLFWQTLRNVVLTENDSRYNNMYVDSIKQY
Source text: A stable HEK293-Blue-hTLR-8 cell line was purchased from InvivoGen (Cat.#: hkb-htlr8, San Diego, California, USA). These cells were originally designed for studying the stimulation of human TLR8 by monitoring the activation of NF-κB. A SEAP (secreted embryonic alkaline phosphatase) reporter gene was placed under the control of the IFN-β minimal promoter fused to five NF-κB and AP-1-binding sites. The SEAP was induced by activating NF-κB and AP-1 via stimulating HEK-Blue hTLR8 cells with TLR8 ligands. Therefore the reporter expression was declined by TLR8 antagonist under the stimulation of a ligand, such as R848, for incubation of 20 hrs. The cell culture supernatant SEAP reporter activity was determined using QUANTI-Blue™ kit (Cat.#: rep-qb1, Invivogen, San Diego, Ca, USA) at a wavelength of 640 nm, a detection medium that turns purple or blue in the presence of alkaline phosphatase.
HEK293-Blue-hTLR8 cells were incubated at a density of 250,000~450,000 cells/mL in a volume of 170 µL in a 96-well plate in Dulbecco’s Modified Eagle’s medium (DMEM) containing 4.5 g/L glucose, 50 U/mL penicillin, […], […], 2 mM L-glutamine, 10% (v/v) heat-inactivated fetal bovine serum with addition of 20 µL test compound in a serial dilution in the presence of final DMSO at 1% and 10 µL of 60uM R848 in above DMEM, perform incubation under 37° C. in a CO2 incubator for 20 hrs. Then 20 µL of the supernatant from each well was incubated with 180 µL Quanti-blue substrate solution at 37° C. for 2 hrs and the absorbance was read at 620 \~655 nm using a spectrophotometer. The signaling pathway that TLR8 activation leads to downstream NF-κB activation has been widely accepted, and therefore similar reporter assay was modified for evaluating TLR8 antagonist.

[1] = Human microsome stability assay; type: in vitro ADME; details: 1 µM test compound, 0.5 mg/mL liver microsomal protein, 37° C., pH 7.4
Experimental: The human microsomal stability assay is used for early assessment of metabolic stability of a test compound in human liver microsomes.
Human liver microsomes (Cat.NO.: 452117, Corning, USA;Cat.NO.:H2610, Xenotech, USA) were preincubated with test compound for 10 minutes at 37° C. in 100 mM potassium phosphate buffer, pH 7.4. The reactions were initiated by adding NADPH regenerating system. The final incubation mixtures contained 1 µM test compound, 0.5 mg/mL liver microsomal protein, 1 mM MgCl2, 1 mM NADP, 1 unit/mL isocitric dehydrogenase and 6 mM isocitric acid in 100 mM potassium phosphate buffer, pH 7.4. After incubation times of 0, 3, 6, 9, 15 and 30 minutes at 37° C., 300 µL of cold acetonitrile (including internal standard) was added to 100 µL incubation mixture to terminate the reaction. Following precipitation and centrifugation, the amount of compound remaining in the samples were determined by LC-MS/MS. Controls of no NADPH regenerating system at zero and 30 minutes were also prepared and analyzed.

IC50 (human TLR8): 0.8 nM | Clearance of Human microsome [1]: 7.5 mL/min/kg
SMILES: Cc1cc(-c2ccc(N3CCC(N4CCNCC4)CC3)nc2C(C)C)cn(C)c1=O [Example 18, 5-[2-isopropyl-6-(4-piperazin-1-yl-1-piperidyl)-3-pyridyl]-1,3-dimethyl-pyridin-2-one]
